Experimental data taken from US20060135624A1, “Natural compound useful for treating diabetes, its preparation and use” (JINGYU LIANG ET AL, priority 2002, published 2006).

Legend:
[1] = tested on: mouse hyperglycemia induced by adrenalin; test: Effect of Sequoyitol on mouse hyperglycemia induced by adrenalin; assay type: in vivo, Kunming mice; settings: for hepatic glycogen level increased compared to the control group: adrenalin model; for blood-sugar level decreased compared to the control group: 30 minutes after adrenalin 0.2 mg/kg i.p.
Procedure: 1. Experimental Methods^[3] • 72 Mice were randomly divided into 6 groups, wherein 4 groups were orally administrated with 25, 50 and 100 mg/kg of Sequoyitol and 10 mg/kg of Glibenclamide according to 0,1 ml/10 g of body weight, respectively, and the normal group and modeling group were administrated with the same volum of distilled water. These administrations were conducted for continuous 7 days. The normal group was administrated with the same volum of physiological saline by injection, while other groups were administrated with 0.2 mg/kg of adrenalin by intra-abdominal injection. The blood-sugar levels were detected by glucose oxidase method after 30 minutes of administration. The livers of the mice were collected, and hepatic glycogen levels were detected by anthrone method.

[2] = tested on: rat hyperglycemia induced by alloxan; test: Effect of Sequoyitol on rat hyperglycemia induced by alloxan; assay type: in vivo, SD rats
Procedure: 1. Experimental Methods^[5,6] • 5 Rats were randomly selected as normal group, the other 55 rats were fasted for 14-16 hours, administrated with 30 mg/kg of Pentobarbital by intra-abdominal injection. After paralyzed, the rats were administrated with 48 mg/kg of alloxan by vena femoralis injection, modeled according to methods of documents, and divided into 5 groups according to blood-sugar level, wherein each group had 11 rats, and 4 groups were orally administrated with 25, 50 and 100 mg/kg of Sequoyitol and 75 mg/kg of phenformine according to 1 ml/100 g of body weight, respectively, and the normal group and modeling group were administrated with the same volum of distilled water. These administrations were conducted for continuous 18 days. The fasting blood-sugar levels of the rats were separately measured at 6th and 12th day after the administration. At the 18th day, blood was collected from arteria femoralis, and the blood sugar level, insulin level, cholesterol content, triglyceride content, malonaldehyde content, and hepatocuprein activity of serum were measured; liver tissue was homogenated, and the malonaldehyde content, and hepatocuprein activity of liver tissue were measured; and pancreatic gland was soaked in 10% formalin, embedded with paraffin, sliced, and dyed with HE.

[3] = tested on: rats; test: General pharmacology in rats; settings: rat, in vivo
Text: (§1) • 1. Guidelines for Studying New Drugs (Pharmacy, Pharmacology, Toxicology), Bureau of Drug Administration, the Ministry of Health of the People's Republic of China • 2. Chen Q I, Methodology for Studying Pharmacology of Chinese Medicine, People' Medical Publishing House, 1st Edition, 1993, 118-119 III. Studies on General Pharmacology • The effects of Sequoyitol on general physical signs and spontaneous movement of normal mice, on Pentobarbital hours of sleep of mice, and on respiratory movement, blood pressure, cardiac rhythm and electrocardiogram of rats were observed.

[4] = tested on: mouse hyperglycemia induced by Streptozocin; test: Effect of Sequoyitol on mouse hyperglycemia induced by Streptozocin; assay type: in vivo, Kunming mice
Procedure: 1. Experimental Methods^[7,8] • Among 66 mice, 10 mice were randomly selected as normal group, and the residual mice were administrated with 160 mg/kg Streptozocin by vena caudalis injection, modeled according to methods of documents, and divided into 5 groups according to blood-sugar level, wherein 4 groups were perorally administrated with 25, 50 and 100 mg/kg of Sequoyitol and 75 mg/kg of phenformine according to 0.1 ml/10 g of body weight, respectively, and the normal group and modeling group were administrated with the same volum of distilled water. These administrations were conducted for continuous 18 days. The blood-sugar levels of the mice were separately measured at 6th and 12th day after the administration. At the 18th day, blood was collected by excising eyeballs, serum was separated, and the blood sugar level, insulin level, cholesterol content, triglyceride content, malonaldehyde content, and hepatocuprein activity of serum were measured; liver tissue was homogenated, and the malonaldehyde content and hepatocuprein activity of liver tissue were measured; and pancreatic gland was soaked in 10% formalin, embedded with paraffin, sliced, and dyed with HE.

[5] = tested on: normal mice; test: Test of acute toxicity by oral administration; assay type: in vivo; settings: 18.95 g/kg and 9.47 g/kg drenched one time; executed after 7 days
Text: 1) Experimental Method • 20 Normal mice (half male and half female) were divided into two groups (each group had 10 mice), and drenched with 18.95 g/kg and 9.47 g/kg one time, wherein the higher dose reached the maximum concentration and the maximum administration volume. The animals' responses were observed. The mice were executed after 7 days, and their organs were macroscopically observed.

[6] = tested on: blood-sugar level of normal mice; test: Effect of Sequoyitol on blood-sugar level of normal mice; assay type: in vivo, Kunming mice; settings: Sequoyitol groups (25, 50, 100 mg/kg) oral 7 days
Procedure: 1. Experimental Method^[3] • 60 Mice were randomly divided into 5 groups, […] according to 0.1 ml/10 g of body weight, respectively, and the normal group was administrated with the same volum of the same volum of distilled water. These administrations were conducted for continuous 7 days. The blood-sugar levels were detected by glucose oxidase method.

[7] = tested on: normal mice; test: General pharmacology in mice; settings: mouse, in vivo
Text: as §1

[8] = Sequoyitol 25 mg/kg oral 7 days
[9] = Sequoyitol 100 mg/kg oral 7 days
[10] = 50 and 100 mg/kg Sequoyitol groups, oral 18 days
[11] = Sequoyitol 50 mg/kg oral 18 days
[12] = Sequoyitol 100 mg/kg oral 18 days
[13] = 25 and 50 mg/kg Sequoyitol groups, p.o. 18 days
[14] = Sequoyitol 100 mg/kg p.o. 18 days
[15] = Sequoyitol groups (25, 50, 100 mg/kg p.o. 18 days)

Structure (SMILES): COC1C(O)C(O)C(O)C(O)C1O (stereo not shown) [Sequoyitol, 5-O-methyl-myo-inositol]
- hepatic glycogen level increased compared to the control group ([1]; Sequoyitol 20 mg/kg (so in the source) oral 7 days): 1.24 mg/g of liver tissue
- blood-sugar level decreased compared to the control group [1, 8]: 32.2 mg/dL
- hepatic glycogen level increased compared to the control group [1, 8]: 1.76 mg/g of liver tissue
- blood-sugar level decreased compared to the control group ([1]; Sequoyitol 50 mg/kg oral 7 days): 35.5 mg/dL
- blood-sugar level decreased compared to the control group [1, 9]: 39.9 mg/dL
- hepatic glycogen level increased compared to the control group [1, 9]: 1.24 mg/g of liver tissue
- hyalinization of interstitial small vessels (histopathologic examination) [2, 10]: alleviated
- inflammatory cell infiltration (histopathologic examination) [2, 10]: reduced
- body weight of diabetes rats compared to the control group ([2]; 50 and 100 mg/kg Sequoyitol groups, oral, since the 15th day (increased at the 13th day)): significantly increased
- serum insulin level increased compared to the control group ([2]; Sequoyitol 25 mg/kg oral 18 days): 1.01 μlU/ml
- alloxan-induced hyperglycemia compared to the control group ([2]; Sequoyitol 25 mg/kg oral, 12th day): significantly alleviated
- blood-sugar level decreased compared to the control group ([2]; Sequoyitol 25 mg/kg oral, 18th day): 194.4 mg/dL
- body weight of diabetes rats compared to the control group ([2]; Sequoyitol 25 mg/kg oral, at the 17th day (increased at the 15th day)): significantly increased
- content of cholesterol in serum decreased compared to the control group [2, 11]: 22.2 mg/dL
- content of triglyceride in serum decreased compared to the control group [2, 11]: 15.7 mg/dL
- serum insulin level increased compared to the control group [2, 11]: 1.45 μl U/ml
- blood-sugar level decreased compared to the control group ([2]; Sequoyitol 50 mg/kg oral, 6th day): 129.1 mg/dL
- blood-sugar level decreased compared to the control group ([2]; Sequoyitol 50 mg/kg oral, 12th day): 200.7 mg/dL
- blood-sugar level decreased compared to the control group ([2]; Sequoyitol 50 mg/kg oral, 18th day): 223.1 mg/dL
- activity of hepatocuprein in liver tissue increased compared to the control group [2, 12]: 18.3 NU/mg prot
- activity of hepatocuprein in serum increased compared to the control group [2, 12]: 55.0 NU/ml
- content of malonaldehyde in liver tissue decreased compared to the control group [2, 12]: 4.29 nmol/mg prot
- content of malonaldehyde in serum decreased compared to the control group [2, 12]: 4.13 nmol/dL
- serum insulin level increased compared to the control group [2, 12]: 3.36 μlU/ml
- blood-sugar level decreased compared to the control group ([2]; Sequoyitol 100 mg/kg oral, 6th day): 120 mg/dL
- blood-sugar level decreased compared to the control group ([2]; Sequoyitol 100 mg/kg oral, 12th day): 218.2 mg/dL
- blood-sugar level decreased compared to the control group ([2]; Sequoyitol 100 mg/kg oral, 18th day): 240.3 mg/dL
- number of pancreatic islands and number of cells in pancreatic islands (histopathologic examination) compared to the model group ([2]; Sequoyitol groups (25, 50, 100 mg/kg oral 18 days)): increased significantly
- effect on blood pressure of rats [3]: did not significantly affect
- effect on cardiac rhythm of rats [3]: did not significantly affect
- effect on electrocardiogram of rats [3]: did not significantly affect
- effect on respiratory movement of rats [3]: did not significantly affect
- content of cholesterol in serum compared to the control group [4, 13]: decreased
- content of malonaldehyde in liver tissue compared to the control group [4, 13]: significantly decreased
- content of triglyceride in serum compared to the control group [4, 13]: significantly decreased
- serum insulin level compared to the control group ([4]; 50 and 100 mg/kg Sequoyitol groups, p.o. 18 days): significantly increased
- body weight of diabetes mice compared to the control group ([4]; 50 and 100 mg/kg Sequoyitol groups, p.o., since the 7th day): significantly increased
- serum insulin level compared to the control group ([4]; Sequoyitol 25 mg/kg p.o. 18 days): increased
- body weight of diabetes mice compared to the control group ([4]; Sequoyitol 25 mg/kg p.o., since the 11th day): increased
- blood-sugar level decreased compared to the control group ([4]; Sequoyitol 50 mg/kg p.o., 12th day): 121.4 mg/dL
- content of cholesterol in serum compared to the control group [4, 14]: significantly decreased
- content of malonaldehyde in liver tissue compared to the control group [4, 14]: highly significantly decreased
- content of triglyceride in serum compared to the control group [4, 14]: highly significantly decreased
- hyalinization of interstitial small vessels (histopathologic examination) [4, 14]: alleviated
- serum insulin level increased compared to the control group [4, 14]: 6.53 μlU/ml
- activity of hepatocuprein in serum compared to the control group [4, 15]: highly significantly increased
- inflammatory cell infiltration (histopathologic examination) [4, 15]: inhibited
- number of pancreatic islands and number of cells in pancreatic islands (histopathologic examination) compared to the model group [4, 15]: increased significantly
- main organs under macroscopic observation [5]: free of abnormality
- blood-sugar level compared with the normal group [6]: not significantly different
- effect on Pentobarbital hours of sleep of mice [7]: did not significantly affect
- effect on spontaneous movement of mice [7]: did not significantly affect
